Measurements taken from patent US11607422B2, “Uttroside B and derivatives thereof as therapeutics for hepatocellular carcinoma” (Rajiv Gandhi Centre for Biotechnology, an Autonomous …, priority 2016, dated 2023).

Legend:
[1] = tested on: A549; test: MTT cell viability assay in A549 cells; assay type: cell-based; settings: 72 h
Protocol: (§1) FIG. 2A is a graph comparison of IC50 of Uttroside B in a panel of cancer cells of different origin. The cancer cell lines HeLa, A375, HepG2, MDA-MB-231, HL 60, A549 and HCT116 were treated with Uttroside B as indicated, incubated for 72 h and the cell viability was assessed by MTT assay. FIG. 2B is a graph showing dose dependent effect of Uttroside B in the liver cancer cell lines and in normal immortalized hepatocytes. The liver cancer cell lines HepG2, Hep3B, SKHEP-1, Huh-7 and normal hepatocytes (Chang liver), were treated with Uttroside B incubated for 72 h and the cell viability was assessed by MTT assay. FIG. 2C is a graph comparison of IC50 of Uttroside B with sorafenib. HepG2 cells were treated with Uttroside B as indicated, incubated for 72 h, and the cell viability was assessed by MTT assay. […] The clones developed were counted and plotted as a graph. Colony containing more than four cells was counted as one clone. […]
(§2) MTT [3-(4,5-dimethylthiazole-2-yl)-2,5-diphenyltetrazolium bromide] assay is a standard colorimetric assay, suitable for analyzing proliferation, viability, and cytotoxicity. […] After overnight incubation, cells were treated with different concentrations of organic extracts (25-250 μg/ml) of S. nigrum and the isolated compound Uttroside B (250-1250 nM) for 72 h and cytotoxicity was measured. […]

[2] = tested on: MDA-MB-231; test: MTT cell viability assay in MDA-MB-231 cells; assay type: cell-based; settings: 72 h
Protocol: as §1, §2

[3] = tested on: HL60; test: MTT cell viability assay in HL60 cells; assay type: cell-based; settings: 72 h
Protocol: as §1, §2

[4] = tested on: HCT-116; test: MTT cell viability assay in HCT-116 cells; assay type: cell-based; settings: 72 h
Protocol: as §1
MTT [3-(4,5-dimethylthiazole-2-yl)-2,5-diphenyltetrazolium bromide] assay is a standard colorimetric assay, suitable for analyzing proliferation, viability, and cytotoxicity. […] At the end of incubation, the optical density was measured at 570 nm using ELISA plate reader (Bio-Rad). The relative cell viability in percentage was calculated as (A570 of treated samples/A570 of untreated samples)×100. […]

[5] = tested on: Swiss albino mice; test: Acute toxicity study; assay type: in vivo
Protocol: Toxicological evaluation:a. Animals: Six to eight-week-old female Swiss albino mice (18-22 g) were obtained from the Animal Research Facility of Rajiv Gandhi Centre for
Biotechnology and the study was performed under protocols approved by Institutional Animal Ethical Committee of Rajiv Gandhi Centre for Biotechnology (IAEC No: 151 (a)/RUBY/2012) b. Acute toxicity study: Swiss albino mice were randomly divided into 3 groups of 6 animals each and were allowed to acclimatize for a week. Group I was taken as the control, which received only vehicle, while Group II and III received a single dose of Uttroside B dissolved in PBS (10 mg/kg and 50 mg/Kg body weight respectively). The mice were observed continuously for 1 h, for any gross behavioral changes and death, and then intermittently for the next 6 h and 24 h. The animals were observed frequently for the next 7 days from the day of treatment after which, the animals were euthanized in a CO2 chamber. The blood serum was collected for analyzing biochemical parameters of liver function, the abnormal values of which are indicative of toxicity. The liver was fixed in 10% buffered formalin and the thin cryostat sections (LEICA CM 1850UV Cryostat) were stained with haematoxylin and eosin for histopathological evaluation.^17

[6] = tested on: HeLa cells; settings: literature ref 12; read-out: IC50, cytotoxicity against HeLa (cervical cancer cells); cited from earlier work
[7] = 10 mg/kg and 50 mg/kg single dose

C[C@H](CC[C@@]1(O)O[C@H]2C[C@H]3[C@@H]4CC[C@H]5C[C@@H](O[C@@H]6O[C@H](CO)[C@H](O[C@@H]7O[C@H](CO)[C@@H](O)[C@H](O[C@@H]8OC[C@@H](O)[C@H](O)[C@H]8O)[C@H]7O[C@@H]7O[C@H](CO)[C@@H](O)[C@H](O)[C@H]7O)[C@H](O)[C@H]6O)CC[C@]5(C)[C@H]4CC[C@]3(C)[C@H]2[C@@H]1C)CO[C@@H]1O[C@H](CO)[C@@H](O)[C@H](O)[C@H]1O [Uttroside B]
IC50 [1]: 1000 nM | IC50 [2]: 1600 nM | IC50 [3]: 2500 nM | IC50 [4]: 6000 nM | histopathological analysis of liver tissue, acute ([5]; 10 mg/kg and 50 mg/kg): did not manifest any morphological change characteristic of toxicity | behavior [5, 7]: did not exhibit any abnormal behavior | serum levels of AST, ALT and ALP [5, 7]: did not show any deviation in the serum levels | liver tissue changes at five times the treatment dose ([5]; 50 mg/kg, acute, reversible changes): micro vesicular fatty changes | gross adverse response (body weight, fur, behavior, food intake) ([5]; up to 5 times dose): failed to exhibit any signs of cumulative adverse response | IC50 [6]: 15400 nM
